We go through 31 compounds from patent publication US9908886B2 (Agency for Science, Technology and Research, priority 2012, dated 2018).

Test [1] concerns the target MNK2 (Homo sapiens (Human), UniProt Q9HBH9). In words: In vitro MNK kinase assay (Caliper LabChip mobility shift). It is filed as biochemical. Particulars: enzymatic, 250 μM ATP; read-out: IC50 Mnk2.
Test [2] deals with MNK1 (Homo sapiens, UniProt Q9BUB5). The test is described as above. The class given is biochemical. As to conditions: enzymatic, 1.2 mM ATP; read-out: IC50 Mnk1.

Where a name gives a salt, the structure may show the parent alone. Bounds are passed on as bounds.

MNK2, sequence (Q9HBH9 84-388): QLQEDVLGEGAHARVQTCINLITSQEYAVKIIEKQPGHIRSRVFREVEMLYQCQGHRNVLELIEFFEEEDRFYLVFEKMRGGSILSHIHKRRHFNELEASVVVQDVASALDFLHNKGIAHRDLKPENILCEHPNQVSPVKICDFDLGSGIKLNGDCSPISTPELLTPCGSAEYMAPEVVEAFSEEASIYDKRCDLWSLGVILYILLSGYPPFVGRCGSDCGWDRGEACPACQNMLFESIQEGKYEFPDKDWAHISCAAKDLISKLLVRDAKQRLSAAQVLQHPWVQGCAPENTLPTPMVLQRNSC

In the case of `N#Cc1ccc(-c2cnc3cnc(-c4ccc(C(=O)N5CCC6(CC5)COC6)cc4)cn23)cc1` [Example 24, 4-(6-(4-(2-oxa-7-azaspiro[3.5]nonane-7-carbonyl)phenyl)imidazo[1,2-a]pyrazin-3-yl)benzonitrile], the IC50 in test [1] and in test [2] was below 1000 nM each time.

For the compound `CC(C)(C)N1CCN(C(=O)c2ccc(-c3cn4c(-c5ccc(C#N)cc5)cnc4cn3)cc2)CC1` [Example 26, 4-(6-(4-(4-tert-butylpiperazine-1-carbonyl)phenyl)imidazo[1,2-a]pyrazin-3-yl)benzonitrile], the IC50 in test [1] and in test [2] was below 1000 nM each time.

Take `Cc1cc(-c2cn3c(-c4ccc(C#N)cc4)cnc3cn2)ccc1C(=O)N1CCC(C)(N)CC1` [Example 28, 4-(6-(4-(4-amino-4-methylpiperidine-1-carbonyl)-3-methylphenyl)imidazo[1,2-a]pyrazin-3-yl)benzonitrile]: the half-maximal inhibitory concentration (IC50) in test [1] and in test [2] was below 100 nM throughout.

Take `N#Cc1ccc(-c2cnc3cnc(-c4ccc(C(=O)N5CCC(N)CC5)c(F)c4)cn23)cc1` [Example 29, 4-(6-(4-(4-aminopiperidine-1-carbonyl)-3-fluorophenyl)imidazo[1,2-a]pyrazin-3-yl)benzonitrile]: the IC50 in test [1] and in test [2] was below 1000 nM throughout.

As to `CC1(N)CCN(C(=O)c2ccc(-c3cn4c(-c5ccc(C#N)cc5)cnc4cn3)cc2F)CC1` [Example 30, 4-(6-(4-(4-amino-4-methylpiperidine-1-carbonyl)-3-fluorophenyl)imidazo[1,2-a]pyrazin-3-yl)benzonitrile], the IC50 in test [1] and in test [2] was below 1000 nM in each case.

In the case of `N#Cc1ccc(-c2cnc3cnc(-c4ccc(C(=O)N5CCC(N)CC5)c(Cl)c4)cn23)cc1` [Example 31, 4-(6-(4-(4-aminopiperidine-1-carbonyl)-3-chlorophenyl)imidazo[1,2-a]pyrazin-3-yl)benzonitrile], the IC50 in test [1] and in test [2] was below 1000 nM throughout.

As for `CC1(N)CCN(C(=O)c2ccc(-c3cn4c(-c5ccc(C#N)cc5)cnc4cn3)cc2Cl)CC1` [Example 32, 4-(6-(4-(4-amino-4-methylpiperidine-1-carbonyl)-3-chlorophenyl)imidazo[1,2-a]pyrazin-3-yl)benzonitrile], the IC50 in test [1] is below 1000 nM; in test [2] it was below 100 nM.

With `CN1CCN(C(=O)c2ccc(-c3cn4c(-c5ccc(C#N)cc5)cnc4cn3)c(O)c2)CC1` [Example 38, 4-(6-(2-hydroxy-4-(4-methylpiperazine-1-carbonyl)phenyl)imidazo[1,2-a]pyrazin-3-yl)benzonitrile], the IC50 in test [1] and in test [2] was below 1000 nM throughout.

`COc1cc(-c2cn3c(-c4ccc(C#N)cc4)cnc3cn2)ccc1C(=O)N1CCN(C)CC1` [Example 39, 4-(6-(3-methoxy-4-(4-methylpiperazine-1-carbonyl)phenyl)imidazo[1,2-a]pyrazin-3-yl)benzonitrile]: the IC50 in test [1] and in test [2] was below 1000 nM in each case.

For `CN1CCN(C(=O)c2ccc(-c3cn4c(-c5ccc(Cl)cc5)cnc4cn3)cc2)CC1` [Example 41, (4-(3-(4-chlorophenyl)imidazo[1,2-a]pyrazin-6-yl)phenyl)(4-methylpiperazin-1-yl)methanone], the IC50 in test [1] and in test [2] was below 1000 nM in each case.

Consider `NC(=O)c1ccc(-c2cn3c(-c4ccc(Cl)cc4)cnc3cn2)cc1` [Example 42, 4-(3-(4-chlorophenyl)imidazo[1,2-a]pyrazin-6-yl)benzamide], for which the 50% inhibitory concentration (IC50) in test [1] and in test [2] was below 1000 nM throughout.

In the case of `O=C1CCN(C(=O)c2ccc(-c3cn4c(-c5ccc(Cl)cc5)cnc4cn3)cc2)CC1` [Example 43, 1-(4-(3-(4-chlorophenyl)imidazo[1,2-a]pyrazin-6-yl)benzoyl)piperidin-4-one], the IC50 in test [1] and in test [2] was below 1000 nM in each case.

For the compound `CCN1CCN(C(=O)c2ccc(-c3cn4c(-c5ccc(Cl)cc5)cnc4cn3)cc2)CC1` [Example 45, (4-(3-(4-chlorophenyl)imidazo[1,2-a]pyrazin-6-yl)phenyl)(4-ethylpiperazin-1-yl)methanone], the IC50 in test [1] and in test [2] was below 1000 nM throughout.

Turning to `O=C(c1ccc(-c2cn3c(-c4ccc(Cl)cc4)cnc3cn2)cc1)N1CCNCC1` [Example 46, (4-(3-(4-chlorophenyl)imidazo[1,2-a]pyrazin-6-yl)phenyl)(piperazin-1-yl)methanone 2,2,2-trifluoroacetate salt], the IC50 in test [1] and in test [2] was below 1000 nM in each case.

On to `N#Cc1ccc(-c2cnc3ccc(-c4ccc(C(=O)N5CCC(O)CC5)cc4)nn23)cc1` [Example 55, 4-(6-(4-(4-hydroxypiperidine-1-carbonyl)phenyl)imidazo[1,2-b]pyridazin-3-yl)benzonitrile], for which the IC50 in test [1] and in test [2] was below 100 nM each time.

`N#Cc1ccc(-c2cnc3ccc(-c4ccc(C(=O)N5CCC(N)CC5)cc4)nn23)cc1` [Example 56, 4-(6-(4-(4-aminopiperidine-1-carbonyl)phenyl)imidazo[1,2-b]pyridazin-3-yl)benzonitrile]: the IC50 in test [1] and in test [2] was below 100 nM in each case.

With `CC(=O)NC1CCN(C(=O)c2ccc(-c3ccc4ncc(-c5ccc(C#N)cc5)n4n3)cc2)CC1` [Example 57, N-(1-(4-(3-(4-cyanophenyl)imidazo[1,2-b]pyridazin-6-yl)benzoyl)piperidin-4-yl)acetamide], the IC50 in test [1] and in test [2] was below 100 nM throughout.

On to `CC1(N)CCN(C(=O)c2ccc(-c3ccc4ncc(-c5ccc(C#N)cc5)n4n3)cc2)CC1` [Example 58, 4-(6-(4-(4-amino-4-methylpiperidine-1-carbonyl)phenyl)imidazo[1,2-b]pyridazin-3-yl)benzonitrile], for which the 50% inhibitory concentration (IC50) in test [1] and in test [2] was below 100 nM throughout.

In the case of `CC(C)N1CCN(C(=O)c2ccc(-c3ccc4ncc(-c5ccc(C#N)cc5)n4n3)cc2)CC1` [Example 59, 4-(6-(4-(4-isopropylpiperazine-1-carbonyl)phenyl)imidazo[1,2-b]pyridazin-3-yl)benzonitrile], the IC50 in test [1] and in test [2] was below 100 nM each time.

Regarding `CNC1CCN(C(=O)c2ccc(-c3ccc4ncc(-c5ccc(C#N)cc5)n4n3)cc2)CC1` [Example 60, 4-(6-(4-(4-(methylamino)piperidine-1-carbonyl)phenyl)imidazo[1,2-b]pyridazin-3-yl)benzonitrile], the IC50 in test [1] and in test [2] was below 100 nM in each case.

Consider `CN(C)C1CCN(C(=O)c2ccc(-c3ccc4ncc(-c5ccc(C#N)cc5)n4n3)cc2)CC1` [Example 63, 4-(6-(4-(4-(dimethylamino)piperidine-1-carbonyl)phenyl)imidazo[1,2-b]pyridazin-3-yl)benzonitrile], for which the IC50 in test [1] and in test [2] was below 100 nM in each case.

As for `N#Cc1ccc(-c2cnc3ccc(-c4ccc(C(=O)N5CCCOCC5)cc4)nn23)cc1` [Example 64, 4-(6-(4-(1,4-oxazepane-4-carbonyl)phenyl)imidazo[1,2-b]pyridazin-3-yl)benzonitrile], the half-inhibitory concentration (IC50) in test [1] and in test [2] was below 100 nM each time.

With `N#Cc1ccc(-c2cnc3ccc(-c4ccc(C(=O)N5CCNCC5)cc4)nn23)cc1` [Example 65, 4-(6-(4-(piperazine-1-carbonyl)phenyl)imidazo[1,2-b]pyridazin-3-yl)benzonitrile], the IC50 in test [1] and in test [2] was below 100 nM each time.

For the compound `CCC1(NC(C)=O)CCN(C(=O)c2ccc(-c3ccc4ncc(-c5ccc(C#N)cc5)n4n3)cc2)CC1` [Example 66, N-(1-(4-(3-(4-cyanophenyl)imidazo[1,2-b]pyridazin-6-yl)benzoyl)-4-ethylpiperidin-4-yl)acetamide], the IC50 in test [1] and in test [2] was below 100 nM throughout.

As to `N#Cc1ccc(-c2cnc3ccc(-c4ccc(C(=O)N5CCNC(=O)C5)cc4)nn23)cc1` [Example 68, 4-(6-(4-(3-oxopiperazine-1-carbonyl)phenyl)imidazo[1,2-b]pyridazin-3-yl)benzonitrile], the half-maximal inhibitory concentration (IC50) in test [1] and in test [2] was below 100 nM throughout.

In the case of `CN1CCN(C(=O)c2ccc(-c3ccc4ncc(-c5ccc(C#N)cc5)n4n3)cc2)CC1=O` [Example 69, 4-(6-(4-(4-methyl-3-oxopiperazine-1-carbonyl)phenyl)imidazo[1,2-b]pyridazin-3-yl)benzonitrile], the half-inhibitory concentration (IC50) in test [1] and in test [2] was below 100 nM each time.

Take `CN1CCN(C2CCN(C(=O)c3ccc(-c4ccc5ncc(-c6ccc(C#N)cc6)n5n4)cc3)CC2)CC1` [Example 70, 4-(6-(4-(4-(4-methylpiperazin-1-yl)piperidine-1-carbonyl)phenyl)imidazo[1,2-b]pyridazin-3-yl)benzonitrile]: the IC50 in test [1] and in test [2] was below 100 nM in each case.

For `N#Cc1ccc(-c2cnc3ccc(-c4ccc(C(=O)N5CCC6(CCCCN6)CC5)cc4)nn23)cc1` [Example 71, 4-(6-(4-(1,9-diazaspiro[5.5]undecane-9-carbonyl)phenyl)imidazo[1,2-b]pyridazin-3-yl)benzonitrile], the IC50 in test [1] and in test [2] was below 100 nM in each case.

As to `CN1CCN(C(=O)c2ccc(-c3ccc4ncc(-c5ccc(C#N)cc5)n4n3)cc2Cl)CC1` [Example 72, 4-(6-(3-chloro-4-(4-methylpiperazine-1-carbonyl)phenyl)imidazo[1,2-b]pyridazin-3-yl)benzonitrile], the IC50 in test [1] and in test [2] was below 100 nM throughout.

Consider `CN1CCN(C(=O)c2ccc(-c3ccc4ncc(-c5ccc(C#N)cc5)n4n3)cc2F)CC1` [Example 73, 4-(6-(3-fluoro-4-(4-methylpiperazine-1-carbonyl)phenyl)imidazo[1,2-b]pyridazin-3-yl)benzonitrile], for which the IC50 in test [1] and in test [2] was below 100 nM each time.

As for `Cc1cc(-c2ccc3ncc(-c4ccc(C#N)cc4)n3n2)ccc1C(=O)N1CCN(C)CC1` [Example 74, 4-(6-(3-methyl-4-(4-methylpiperazine-1-carbonyl)phenyl)imidazo[1,2-b]pyridazin-3-yl)benzonitrile], the IC50 in test [1] and in test [2] was below 100 nM throughout.
